Patent publication US10334851B2, “Herbicidal isoxazolo[5,4-B]pyridines” (BASF SE, priority 2010, dated 2019)

Legend:
Type in all cases: in vivo
Abutilon theophrasti = experiment: Greenhouse post-emergence treatment of Abutilon theophrasti (velvetleaf); details: scale 0 (no damage) to 100 (complete destruction); for pest or weed control at 2000 g/ha / pest or weed control at 3000 g/ha: Abutilon theophrasti
Description: (§1) The seeds of the test plants were sown separately for each species. For the post-emergence treatment, the test plants were first grown to a height of 3 to 15 cm, depending on the plant habit, and only then treated with the active ingredients which had been suspended or emulsified in water. For this purpose, the test plants were either sown directly and grown in the same containers, or they were first grown separately as seedlings and transplanted into the test containers a few days prior to treatment. Depending on the species, the plants were kept at 10-25° C. or 20-35° C. The test period extended over 2 to 4 weeks. During this time, the plants were tended, and their response to the individual treatments was evaluated. Evaluation was carried out using a scale from 0 to 100. 100 means no emergence of the plants, or complete destruction of at least the aerial moieties, and 0 means no damage, or normal course of growth. A good herbicidal activity is given at values of at least 80 and a very good herbicidal activity is given at values of at least 90. The plants used in the greenhouse experiments belonged to the following species: [table]

Setaria faberi = experiment: Greenhouse post-emergence treatment of Setaria faberi (giant foxtail); details: for pest or weed control at 2000 g/ha / pest or weed control at 3000 g/ha: scale 0 to 100, read-out: damage; for damage: scale 0 to 100
Description: as §1

[1] = system: Amaranthus retroflexus L.; experiment: Greenhouse post-emergence treatment of Amaranthus retroflexus L. (pigweed); details: application rate 1.0 kg/ha, scale 0 to 100
Description: as §1

Polygonum convolvulus = experiment: Greenhouse post-emergence treatment of Polygonum convolvulus (wild buckwheat); details: application rate 1.0 kg/ha, scale 0 to 100
Description: as §1

Avena fatua = experiment: Greenhouse post-emergence treatment of Avena fatua (spring-wild oat); details: scale 0 (no damage) to 100 (complete destruction)
Description: as §1

Chenopodium album = experiment: Greenhouse post-emergence treatment of Chenopodium album (fat-hen); details: application rate 1.0 kg/ha; for damage: scale 0 to 100; for pest or weed control at 1000 g/ha: scale 0 to 100, read-out: damage
Description: as §1

Alopecurus myosuroides = experiment: Greenhouse post-emergence treatment of Alopecurus myosuroides (blackgrass); details: application rate 1.0 kg/ha, scale 0 (no damage) to 100 (complete destruction)
Description: as §1

Matricaria inodora = experiment: Greenhouse post-emergence treatment of Matricaria inodora (horse daisy); details: application rate 2.0 kg/ha, scale 0 (no damage) to 100 (complete destruction)
Description: as §1

Agrostis stolonifera L. = experiment: Greenhouse post-emergence treatment of Agrostis stolonifera L. (white bent); details: application rate 2.0 kg/ha, scale 0 (no damage) to 100 (complete destruction)
Description: as §1

Lolium multiflorum = experiment: Greenhouse post-emergence treatment of Lolium multiflorum (italian ryegrass); details: application rate 1.0 kg/ha, scale 0 (no damage) to 100 (complete destruction)
Description: as §1

SMILES: Cc1noc2nc(C3CC3)cc(C(=O)O)c12 [I.2.1]
- pest or weed control at 2000 g/ha (Abutilon theophrasti; application rate 2.0 kg/ha): 95%
- pest or weed control at 2000 g/ha (Setaria faberi; application rate 2.0 kg/ha): 100%

SMILES: O=C(O)c1cc(C2CC2)nc2onc(CCc3ccccc3)c12 [I.2.11]
- damage (Abutilon theophrasti; application rate 3.0 kg/ha): 100%
- damage (Setaria faberi; application rate 3.0 kg/ha): 100%

SMILES: O=C(O)c1cc(C2CC2)nc2onc(-c3ccc([N+](=O)[O-])cc3)c12 [I.2.65]
- damage [1]: 100%
- damage (Polygonum convolvulus): 100%

SMILES: CCCN(CC1CC1)C(=O)COC(=O)c1cc(C2CC2)nc2onc(C)c12 [I.1.35]
- damage (Avena fatua; application rate 3.0 kg/ha): 85%
- damage (Abutilon theophrasti; application rate 3.0 kg/ha): 90%

SMILES: CCCCc1noc2nc(C3(F)CC3)cc(C(=O)O)c12 [I.7.66]
- damage (Chenopodium album): 100%
- damage (Polygonum convolvulus): 100%

SMILES: Cc1noc2nc(C3CC3)cc(C(=O)OCC#N)c12 [I.1.6]
- damage (Abutilon theophrasti; application rate 3.0 kg/ha): 100%
- damage (Setaria faberi; application rate 3.0 kg/ha): 95%

SMILES: O=C(O)c1cc(C2(F)CC2)nc2onc(-c3ccc(C(F)(F)F)cc3)c12 [I.7.59]
- damage [1]: 100%
- damage (Polygonum convolvulus): 100%

SMILES: Cc1noc2nc(C3CC3)cc(C(=O)OCC(=O)OC(C)(C)C)c12 [I.1.43]
- damage (Avena fatua; application rate 1.0 kg/ha): 90%
- damage (Alopecurus myosuroides): 80%

SMILES: O=C(O)c1cc(C2CC2)nc2onc(C3CC3)c12 [I.2.7]
- pest or weed control at 3000 g/ha (Abutilon theophrasti; application rate 3.0 kg/ha): 100%
- pest or weed control at 3000 g/ha (Setaria faberi; application rate 3.0 kg/ha): 100%

SMILES: Cc1ccsc1-c1noc2nc(C3CC3)cc(C(=O)O)c12 [I.2.69]
- pest or weed control at 1000 g/ha (Chenopodium album): 95%
- damage (Polygonum convolvulus): 85%

SMILES: O=C(O)c1cc(C2(F)CC2)nc2onc(-c3ccc(Br)cc3)c12 [I.7.60]
- damage [1]: 100%
- damage (Polygonum convolvulus): 100%

SMILES: CCOC(=O)C1=C(COC(=O)c2cc(C3CC3)nc3onc(C)c23)NC(=O)NC1 [I.1.2]
- damage (Matricaria inodora): 90%

SMILES: Cc1noc2nc(C3CC3)cc(C(=O)OC(C)C(N)=O)c12 (stereo not drawn) [I.1.24]
- damage (Matricaria inodora): 100%

SMILES: CC(C)(C)Cc1noc2nc(C3(F)CC3)cc(C(=O)O)c12 [I.7.69]
- damage [1]: 100%
- damage (Polygonum convolvulus): 100%

SMILES: CCOC(=O)c1cc(C2CC2)nc2onc(C)c12 [I.1.63]
- damage (Avena fatua; application rate 3.0 kg/ha): 80%

SMILES: O=C(O)c1cc(C2CC2)nc2onc(-c3ccccc3Br)c12 [I.2.59]
- damage (Chenopodium album): 95%
- damage (Polygonum convolvulus): 90%

SMILES: Cc1noc2nc(C3CC3)cc(C(=O)OCC(F)(F)F)c12 [I.1.67]
- damage (Avena fatua; application rate 3.0 kg/ha): 95%
- damage (Abutilon theophrasti; application rate 3.0 kg/ha): 100%

SMILES: O=C(O)c1cc(C2CC2)nc2onc(-c3ccco3)c12 [I.2.4]
- damage (Matricaria inodora): 98%

SMILES: O=C(O)c1cc(C2CC2)nc2onc(-c3ccncc3)c12 [I.2.16]
- pest or weed control at 3000 g/ha (Abutilon theophrasti; application rate 3.0 kg/ha): 85%
- pest or weed control at 3000 g/ha (Setaria faberi; application rate 3.0 kg/ha): 100%

SMILES: CC(C)c1noc2nc(C3(F)CC3)cc(C(=O)O)c12 [I.7.67]
- pest or weed control at 1000 g/ha (Chenopodium album): 100%
- damage (Polygonum convolvulus): 100%

SMILES: O=C(O)c1cc(C2CC2)nc2onc(-c3ccccc3)c12 [I.2.5]
- damage (Abutilon theophrasti; application rate 3.0 kg/ha): 100%
- damage (Setaria faberi; application rate 3.0 kg/ha): 80%

SMILES: O=C(O)c1cc(C2CC2)nc2onc(-c3cccnc3)c12 [I.2.15]
- pest or weed control at 3000 g/ha (Abutilon theophrasti; application rate 3.0 kg/ha): 85%
- pest or weed control at 3000 g/ha (Setaria faberi; application rate 3.0 kg/ha): 100%

SMILES: COc1ccc(-c2noc3nc(C4CC4)cc(C(=O)O)c23)cc1 [I.2.8]
- damage (Abutilon theophrasti; application rate 3.0 kg/ha): 100%
- damage (Setaria faberi; application rate 3.0 kg/ha): 80%

SMILES: Cc1noc2nc(C3CC3)cc(C(=O)OCc3nc(-c4cccs4)no3)c12 [I.1.10]
- damage (Agrostis stolonifera L.): 90%
- damage (Matricaria inodora): 85%

SMILES: CCc1ccc(C(=O)COC(=O)c2cc(C3CC3)nc3onc(C)c23)s1 [I.1.49]
- damage (Agrostis stolonifera L.): 85%
- damage (Matricaria inodora): 98%

SMILES: O=C(O)c1cc(C2CC2)nc2onc(C3CCCC3)c12 [I.2.14]
- pest or weed control at 3000 g/ha (Abutilon theophrasti; application rate 3.0 kg/ha): 100%
- pest or weed control at 3000 g/ha (Setaria faberi; application rate 3.0 kg/ha): 90%

SMILES: COc1ccc(-c2nc(COC(=O)c3cc(C4CC4)nc4onc(C)c34)co2)cc1 [I.1.31]
- damage (Agrostis stolonifera L.): 85%
- damage (Matricaria inodora): 95%

SMILES: O=C(O)c1cc(C2CC2)nc2onc(-c3ccc(-c4ccccc4)cc3)c12 [I.2.19]
- damage (Abutilon theophrasti; application rate 3.0 kg/ha): 100%
- damage (Setaria faberi; application rate 3.0 kg/ha): 85%

SMILES: O=C(O)c1cc(C2CC2)nc2onc(C3CCC3)c12 [I.2.12]
- pest or weed control at 3000 g/ha (Abutilon theophrasti; application rate 3.0 kg/ha): 100%
- pest or weed control at 3000 g/ha (Setaria faberi; application rate 3.0 kg/ha): 90%

SMILES: O=C(O)c1cc(C2CC2)nc2onc(C(F)(F)F)c12 [I.2.10]
- pest or weed control at 3000 g/ha (Abutilon theophrasti; application rate 3.0 kg/ha): 90%
- pest or weed control at 3000 g/ha (Setaria faberi; application rate 3.0 kg/ha): 85%

SMILES: CCc1cc(C(=O)O)c2c(C3CC3)noc2n1 [I.7.17]
- pest or weed control at 3000 g/ha (Abutilon theophrasti; application rate 3.0 kg/ha): 100%
- pest or weed control at 3000 g/ha (Setaria faberi; application rate 3.0 kg/ha): 90%

SMILES: COC(=O)c1cc(C2CC2)nc2onc(C)c12 [I.1.39]
- damage (Agrostis stolonifera L.): 90%
- damage (Avena fatua; application rate 2.0 kg/ha): 85%

SMILES: Cc1noc2nc(C3CC3)cc(C(=O)OCc3nc4ccccc4o3)c12 [I.1.21]
- damage (Chenopodium album): 100%
- damage (Lolium multiflorum): 100%

SMILES: O=C(O)c1cc(C2CC2)nc2onc(-c3ccc(Br)cc3)c12 [I.2.20]
- damage (Abutilon theophrasti; application rate 3.0 kg/ha): 100%
- damage (Setaria faberi; application rate 3.0 kg/ha): 95%

SMILES: CC1CC1c1noc2nc(C3CC3)cc(C(=O)O)c12 (stereo not drawn) [I.2.13]
- pest or weed control at 2000 g/ha (Abutilon theophrasti; application rate 2.0 kg/ha): 100%
- pest or weed control at 2000 g/ha (Setaria faberi; application rate 2.0 kg/ha): 95%

SMILES: COC(=O)c1cc(C2CC2)nc2onc(-c3cccc(OC)c3)c12 [I.4.19]
- damage (Setaria faberi; application rate 3.0 kg/ha): 100%

SMILES: CC(C)(C)Cc1noc2nc(C3CC3)cc(C(=O)O)c12 [I.2.2]
- damage (Abutilon theophrasti; application rate 2.0 kg/ha): 100%
- damage (Setaria faberi; application rate 2.0 kg/ha): 90%

SMILES: CC(C)c1noc2nc(C3CC3)cc(C(=O)O)c12 [I.2.6]
- pest or weed control at 3000 g/ha (Abutilon theophrasti; application rate 3.0 kg/ha): 100%
- pest or weed control at 3000 g/ha (Setaria faberi; application rate 3.0 kg/ha): 95%

SMILES: O=C(O)c1cc(C2CC2)nc2onc(-c3ccccc3OC(F)F)c12 [I.2.64]
- damage [1]: 100%
- damage (Polygonum convolvulus): 80%

SMILES: Cc1noc2nc(C3(F)CC3)cc(C(=O)O)c12 [I.7.51]
- pest or weed control at 3000 g/ha (Setaria faberi; application rate 3.0 kg/ha): 90%

SMILES: CCCc1noc2nc(C3CC3)cc(C(=O)O)c12 [I.2.3]
- damage (Abutilon theophrasti; application rate 3.0 kg/ha): 100%
- damage (Setaria faberi; application rate 3.0 kg/ha): 85%

SMILES: COC(=O)c1cc(C2CC2)nc2onc(C3CC3C)c12 (stereo not drawn) [I.4.3]
- pest or weed control at 3000 g/ha (Setaria faberi; application rate 3.0 kg/ha): 90%

SMILES: COC(=O)c1cc(C2CC2)nc2onc(-c3cccnc3)c12 [I.4.2]
- pest or weed control at 3000 g/ha (Setaria faberi; application rate 3.0 kg/ha): 85%
